Data on seven compounds can be found in publication PMC8764033, “Single-molecule analysis of specificity and multivalency in binding of short linear substrate motifs to the APC/C” (Nature Communications, 2022).

One test deals with T1, APC/C^apo (Saccharomyces cerevisiae, UniProt P38042+P53068).
T1 construct: APC/C was purified from yeast cells; made in house; host or cells: S. cerevisiae W303 strain NHY13 (Cdc16-TAP, Apc1-GFP, cdh1 deleted)
The test is described as follows: SMOR assay, yeast APC/C^apo (no activator). Type of test: binding. How it is done:
Yeast strains were derivatives of W303 and are listed in Supplementary Table 2. For APC/C purification, we used a strain carrying Cdc16-TAP and lacking Cdh1 (DOM1126); in most experiments, the strain also carried Apc1-GFP (NHY13). Yeast were grown in YPD media to OD600 = 0.8, collected and flash-frozen. Cells were lysed by bead beating in lysis buffer A (50 mM HEPES pH 7.5, 150 mM KCl, 10% glycerol, 0.2% Triton X-100, 63 µM B-glycerophosphate, 48 µM sodium fluoride, 1 µg ml^−1 pepstatin A, 1 µg ml^−1 leupeptin, 1 µg ml^−1 aprotinin, 1 mM PMSF, 1 mM DTT, 0.5 mM EDTA) and APC/C was purified using magnetic IgG beads. The beads were washed using wash buffer A (20 mM HEPES pH 7.5, 150 mM KCl, 10% Glycerol, 0.05% Triton X-100). After incubation with purified Cdh1 or Cdc20, the APC/C was cleaved off the beads with TEV protease in wash buffer A with 0.05% Tween-20 (for single-molecule studies) or 0.05% Triton X-100 (for ensemble assays such as ubiquitylation) and used immediately.
(§1) For all SMOR experiments, 24 × 50 mm high precision glass coverslips (Bioscience Tools) and drilled microscope slides were passivated with a combination of PEG and PEG-biotin (coverslips) or PEG only (slides) following a previously published protocol for SiMPull[31]. Reaction chambers (~20 µl) were created using double-sided tape and epoxy. Protein was immobilized on the surface with 0.2 mg ml^−1 NeutrAvidin in buffer C (20 mM HEPES pH 7.5, 150 mM KCl, 10% glycerol, 0.05% Tween-20, 1 mM DTT). Excess NeutrAvidin was washed away and incubated with either biotin-conjugated mouse monoclonal anti-Strep-Tag II antibody (LSBio, Cat. No. LS-C203632-100) or biotin-conjugated rabbit polyclonal anti-GFP antibody (Rockland, Cat. No. 600-406-215) diluted in buffer C + BSA (0.1 mg ml^−1; Molecular Biology Grade Bovine Serum Albumin). Activator WD40 and activated APC/C (typically 50 µl containing about 65 ng APC/C, of which only a small fraction is immobilized on the glass) were immobilized using anti-Strep-Tag II, while APC/C alone was immobilized with anti-GFP. SMOR results were similar when performed in the buffer (wash buffer B) used in polarization anisotropy.
(§2) To capture dynamic protein–protein interactions, dye-labeled substrate diluted in buffer C + BSA was added to the chamber containing immobilized proteins. Interactions were imaged by TIRF microscopy as described below. For optimal signal-to-noise ratio, peptide concentration was no greater than 1 nM. Protein substrates included Hsl1 aa 667–872 and a C-terminal HaloTag followed by a TAP tag, and were produced by translation in rabbit reticulocyte lysates using TnT Quick Coupled Transcription/Translation System (Promega) (see Supplementary Table 5 for plasmids). Protein was purified with magnetic IgG beads and labeled on the bead with JF549 or JF646 dye so that unbound dye could be washed away. Purified dye-labeled protein was then cleaved from the beads using TEV protease. Before adding substrate to the reaction chamber, oxygen scavenging reagents were added (10 nM protocatechuate-3,4-dioxygenase, 2.5 mM protocatechuic acid, and 1 mM Trolox)[41]. A detailed description of the SMOR analysis pipeline is found in Supplementary Note 1.
Microscopy was performed with a Nikon Eclipse TE2000-E with Perfect Focus with a 100 × 1.49na oil, Apo TIRF DIC N2, 0.13-0.2, WD0.12 objective. Movies were recorded using the Andor iXon DU-897E-CSO. For visualizing GFP-tagged protein, a 491 nm laser was used with an ET525/50 (Chroma) filter for emission. For visualizing JF549-labeled substrate, a 561 nm laser was used with an ET595/50 (Chroma) filter for emission. For visualizing all Cy5-labeled peptides and JF646-labeled substrates, a 640 nm laser was used with an ET685/70 filter (Chroma) for emission. Initially, for each substrate tested, we acquired movies at multiple intervals to deduce the optimal interval to decrease bleaching. µManager version 2.0 was used to control the microscope and record time-lapse movies.

For a further test, the target named is T2, hCdh1^WD40 (Homo sapiens, UniProt Q9UM11).
T2 construct: human Cdh1 (aa 165–484; pNH164); made in house; host or cells: Sf9 insect cells (baculovirus)
The test is described as follows: SMOR assay, human Cdh1 WD40. Type of test: binding. The conditions noted are these: human Cdh1, D-box binding; read-out: inferred kon. How it is done:
(§3) Activators were cloned into the pFastBac HT A vector, with an N-terminal 2xStrep-Tag II. For some experiments, we constructed vectors for expression of the WD40 domains of yeast Cdh1 (aa 241–550; pNH144), human Cdh1 (aa 165–484; pNH164), or human Cdc20 (aa 162–484; pNH188). For SMOR, a C-terminal GFP tag was added. Bacmid plasmids are listed in Supplementary Table 3. Plasmids were transformed into DH10Bac cells, and purified Bacmid was used to transfect Sf9 cells to generate P1 baculovirus, which was used to generate P2 virus. SF9 cells were infected with the P2 virus for 48 h. Flash-frozen pellets were lysed by sonication or high-pressure homogenization in lysis buffer B (50 mM Tris-HCl pH 8, 150 mM KCl, 0.5 mM EDTA, 1 mM DTT, 10% Glycerol, EDTA-free protease inhibitor tablet, 1 µg ml^−1 pepstatin A). After the lysate was applied to the StrepTrap column, the column was washed with wash buffer B (lysis buffer B lacking protease inhibitors) and eluted in the same buffer containing 2.5 mM desthiobiotin.
as §1, §2
(§4) Microscopy was performed with a Nikon Eclipse TE2000-E with Perfect Focus with a 100 × 1.49na oil, Apo TIRF DIC N2, 0.13-0.2, WD0.12 objective. Movies were recorded using the Andor iXon DU-897E-CSO. For visualizing GFP-tagged protein, a 491 nm laser was used with an ET525/50 (Chroma) filter for emission. For visualizing JF549-labeled substrate, a 561 nm laser was used with an ET595/50 (Chroma) filter for emission. For visualizing all Cy5-labeled peptides and JF646-labeled substrates, a 640 nm laser was used with an ET685/70 filter (Chroma) for emission. […]

In the next test the target is T3, Cdh1 WD40 domain (yeast) (Saccharomyces cerevisiae, UniProt P53197).
T3 construct: the WD40 domains of yeast Cdh1 (aa 241–550; pNH144); 2xStrep-Tag II (N); made in house; host or cells: Sf9 insect cells (baculovirus)
T3 sequence (P53197 241-550): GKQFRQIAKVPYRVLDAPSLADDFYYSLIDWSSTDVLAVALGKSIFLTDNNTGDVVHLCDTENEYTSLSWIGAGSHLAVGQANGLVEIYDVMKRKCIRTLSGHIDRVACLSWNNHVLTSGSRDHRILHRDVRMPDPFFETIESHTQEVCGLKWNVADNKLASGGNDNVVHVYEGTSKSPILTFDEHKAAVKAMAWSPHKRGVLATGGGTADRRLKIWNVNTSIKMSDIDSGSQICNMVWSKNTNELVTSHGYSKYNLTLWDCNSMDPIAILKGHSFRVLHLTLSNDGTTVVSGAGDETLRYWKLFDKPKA
The test is described as follows: Fluorescence anisotropy, 10 nM Cy5-labeled degron peptide, yeast Cdh1 WD40. Type of test: binding.
Description: To determine the affinities of APC/C degrons for their binding sites, we first used conventional equilibrium binding assays of degron peptide binding to the activator. We used the baculovirus system to produce the WD40 domain of Cdh1 from the budding yeast Saccharomyces cerevisiae and measured fluorescence anisotropy to assess the binding of fluorescently-tagged degron peptides at increasing activator concentrations. The WD40 domain of yeast Cdc20 could not be expressed and was not studied.
as §3
Fluorescent degron peptides carried a C-terminal Cy5 label (CPC Scientific) and are listed in Supplementary Table 4. For anisotropy experiments, 10 nM fluorescent peptide was mixed with various concentrations of purified Cdh1 WD40 in wash buffer B at room temperature for 1 min, which we determined was sufficient for the binding reaction to reach equilibrium. Fluorescence was measured on a K2 Multifrequency Fluorometer at 25 °C. All Cy5-labeled peptides were excited with polarized light at 635 nm and emission was detected using a 700/75 nm bandpass filter (ET series, Chroma). […] Data were fitted to one-site equilibrium binding using GraphPad Prism version 8.4 to determine KD. Results were the same when peptide binding was measured in the buffer used in SMOR assays (buffer C, below).
In general terms: Fluorescence polarisation rises when a labelled molecule tumbles more slowly, as on binding a larger partner.

Another test deals with T4, Cdh1^WD40 (Saccharomyces cerevisiae, UniProt P53197).
T4 construct: the WD40 domains of yeast Cdh1 (aa 241–550; pNH144); made in house; host or cells: Sf9 insect cells (baculovirus)
T4 sequence (P53197 241-550): T3 sequence (P53197 241-550)
The test is described as follows: SMOR assay (single-molecule off-rate, TIRF), yeast Cdh1^WD40. Type of test: binding. The method, then: as §3, §1, §2, §4

A further test relates to Cdc20. The conditions noted are these: cited from earlier work. The text has this:
This specificity raises the exciting possibility of activator-specific targeted protein degradation as a therapeutic application.

Setting [1] is: mean of the listed replicates, source data of Fig. 1a (there μM), read-out: Mean Kd.
The mark [2] stands for this setting: replicate 2021-11-10, source data of Fig. 1a (there μM), read-out: Kd.
The mark [3] stands for this setting: replicate 2019-07-08, source data of Fig. 1a (there μM), read-out: Kd.

Where two headings read alike, the source gives them in different places. Where a SMILES comes first, the peptide text is derived from it.

By kon is commonly meant a measure of how fast the partners come together. The Kd is the free concentration of one partner at which half of the binding sites on the other are occupied at equilibrium, for simple one-to-one binding. Usually koff stands for the first-order rate constant of dissociation.

T2 sequence (Q9UM11 165-484): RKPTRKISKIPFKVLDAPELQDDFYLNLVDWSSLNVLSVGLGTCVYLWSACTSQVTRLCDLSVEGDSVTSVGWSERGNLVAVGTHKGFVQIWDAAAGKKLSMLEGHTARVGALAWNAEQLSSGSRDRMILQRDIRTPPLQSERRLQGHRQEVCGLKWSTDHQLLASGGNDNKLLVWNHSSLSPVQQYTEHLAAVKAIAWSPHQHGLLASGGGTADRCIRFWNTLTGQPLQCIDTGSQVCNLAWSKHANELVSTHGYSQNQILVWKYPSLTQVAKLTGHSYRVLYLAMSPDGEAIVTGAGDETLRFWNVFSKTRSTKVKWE

Take “(Cy5)-SLIFDAFNQIR [Cdh1 IR, Cy5-labeled yeast Cdh1 C-terminal IR peptide]”: the “Dwell Time” value worked out at 0.616 ± 0.019 s at APC/C^apo (Supplementary Table 1, replicate 1 (movie listed first)) and 0.557 ± 0.011 s on APC/C^apo (Supplementary Table 1, replicate 2 (movie listed second)). The mean dwell time on APC/C^apo (representative movie, ± SE, buffer C + BSA) stood at 0.616 ± 0.02 s.
Take `CC[C@H](C)[C@H](NC(=O)[C@H](CC(=O)O)NC(=O)[C@H](CO)NC(=O)[C@H](CC(C)C)NC(=O)[C@H](C)NC(=O)[C@H](C)NC(=O)[C@H](CCCNC(=N)N)NC(=O)[C@H](CCCCN)NC(=O)[C@@H]1CCCN1C(=O)[C@H](CCCCN)NC(=O)[C@H](CCC(N)=O)NC(=O)[C@@H](N)CCC(=O)O)C(=O)N[C@H](C(=O)N[C@@H](CC(N)=O)C(=O)N[C@@H](CO)C(=O)N[C@@H](Cc1ccccc1)C(=O)N[C@@H](CC(N)=O)C(=O)N[C@@H](CCCCN)C(=O)N[C@@H](CCSC)C(=O)N[C@@H](CC(N)=O)C(=O)N[C@@H](CCCCN)C(=O)O)[C@@H](C)O` [Hsl1 D box] (H-EQKPKRAALSDITNSFNKMNK-OH): the kon at hCdh1^WD40 was determined as 100000 M⁻¹ s⁻¹; at Cdh1^WD40 (inferred from koff and anisotropy KD, yeast Cdh1, read-out: association rate constant kon), 800000 M⁻¹ s⁻¹. Further, the Kd on Cdh1 WD40 domain (yeast) (setting [1]) amounted to 3.48 µM. The koff at Cdh1^WD40 (reciprocal of mean dwell time, read-out: dissociation rate constant koff) came to 2.8 s⁻¹.
For the compound `Cc1ncc([N+](=O)[O-])n1CCOC(=O)NC(Nc1ncccn1)C(Cl)(Cl)Cl` (centres unmarked) [Apcin], the “activator specificity (in words)” value with Cdc20 is recorded as “Cdc20 specificity”.
As for “EQKPKRAALSDITNSFNKMN-K(Cy5) [Hsl1 D box and dark KEN mutant, Cy5 Hsl1 D box peptide (10 nM) in presence of unlabeled mutated Hsl1 KEN (100 µM)]”, the dissociation constant Kd at Cdh1 WD40 domain (yeast) (setting [1]) was determined as 2.86 µM; at Cdh1 WD40 domain (yeast) (setting [2]), 2.16 µM; at Cdh1 WD40 domain (yeast) (replicate 2021-11-15, source data of Fig. 1a (there μM), read-out: Kd), 3.56 µM; on Cdh1 WD40 domain (yeast) (representative single experiment, Fig. 1c, dark = unlabeled peptide 100 µM, read-out: KD), 3.6 µM.
For “EQKPKRAALSDITNSFNKMN-K(Cy5) [Hsl1 D box and dark KEN, Cy5 Hsl1 D box peptide (10 nM) in presence of unlabeled Hsl1 KEN (100 µM)]”, the Kd at Cdh1 WD40 domain (yeast) (setting [1]) was 1.12 µM; on Cdh1 WD40 domain (yeast) (setting [2]), 1.04 µM.
In the case of “GVSTNKENEGPEYPTKIE-K(Cy5) [Hsl1 KEN and dark D box mutant, Cy5 Hsl1 KEN peptide (10 nM) in presence of unlabeled mutated Hsl1 D box (100 µM)]”, the Kd at Cdh1 WD40 domain (yeast) (setting [1]) was 10.9 µM; at Cdh1 WD40 domain (yeast) (setting [3]) it was 6.35 µM; at Cdh1 WD40 domain (yeast) (setting [2]), 15.5 µM.
In the same order, the values of “GVSTNKENEGPEYPTKIE-K(Cy5) [Hsl1 KEN and dark D box, Cy5 Hsl1 KEN peptide (10 nM) in presence of unlabeled Hsl1 D box (100 µM)]” are 3.37 µM, 3.41 µM and 3.34 µM.
